Measured values reported in patent publication US5124083A, “3-substituted and 3,3-disubstituted 4-oxoretinoic acids and their esters” (Southern Research Institute, priority 1990, dated 1992).
pEC50: −log10 of the molar value. Read-outs that look alike come from different tables or passages of the source.

Assays:
[1] = system: F9 Embryonal Carcinoma Cells; experiment: Induction of differentiation of F9 embryonal carcinoma cells (plasminogen activator release); assay type: cell-based; settings: Mus musculus, 96 h, by release of plasminogen activator, 4 days, read-out: Differentiation of F9 Embryonal Carcinoma Cells ED50
Description: Induction of differentiation of cancer cells is a potential mode of cancer chemoprevention. […] Elevated release of plasminogen activator by F9 cells in the presence of retinoids is a marker for differentiation. Induction of differentiation of F9 cells by several of the retinoids of this invention was evaluated, and the results are summarized in Table I (Example 24) as values of ED50. All of the tested 4-oxoretionoic acid analogues induce differentiation at low concentrations (ED50 =[…] -10^-10 molar) and, therefore, are very effective inducers of differentiation of mouse F9 embryonal carcinoma cells. […] Under the conditions of this assay, ester derivatives might be hydrolyzed partially to the carboxylic acids.
Assay for Induction of Differentiation of Cancer Cells to Normal Cells
Evaluation of the differentiation potential of 4-oxoretinoids was carried out with an embryonal carcinoma cell line, F9. Elevation of plasminogen activator release by F9 cells in the presence of retinoids is a marker for inducing differentiation into parietal endoderm (Strickland and Mahdavi, loc. cit.; Strickland and Sawey, loc. cit.). F9 cells were grown at a density of 1×10^5 cells/mL in the presence or absence of […], 10^-8, 10^-9, 10^-10, and 10^-11 or molar retinoids for 4 days. Aliquots (20 μL) of the harvest fluid were mixed with 0.13 μM plasminogen, 0.3 mM H-D-Val-Leu-Lys-p-nitroaniline (a synthetic substrate of plasmin), 0.1% Tween 80, and 25 μg of fibrinogen fragments in a final volume of 0.2 mL of Tris-HCl, pH 7.5. After incubation for 4 hours at 25° C., the generation of p-nitroaniline was measured by absorbance at 405 nm. The average absorbencies from duplicate experiments were plotted (semilog plots) versus concentration (molarity). The ED50 values were determined by finding the midpoint between the maximal and minimal absorbance values.
Induction of Differentiation of Cancer Cells
^a ED50 is the molar concentration of the retinoid that causes
50% induction of differentiation of the carcinoma cells as measured by th
release of plasminogen activator.

[2] = system: skin papillomas; experiment: Mouse antipapilloma assay (DMBA-TPA skin papillomas); assay type: in vivo; parameters: Average Number of Skin Papillomas/Mouse as % of No. of Papillomas/Mouse in the DMBA-TPA Control Group of Mice: concentration or dose not given beside the values; settings: for Average Number of Skin Papillomas/Mouse as % of No. of Papillomas/Mouse in the DMBA-TPA Control Group of Mice: DMBA-initiated, TPA-promoted mouse skin; for Reduction of papilloma formation, summary range: range over the six most active retinoids; for Papilloma formation as % of papilloma formation in untreated control mice, summary range: summary of Table IV
From the text: Application of the carcinogen DMBA to mouse skin followed by application of the tumor promoter TPA causes the formation of papillomas. Certain retinoids applied to the same area of mouse skin reduce or prevent papilloma formation (e.g. H. Mayer, W. Bollag, R. Hanni, and R. Ruegg, Experientia, Vol 34, pages 1105-1119, 1978; R. K. Boutwell and A. K. Verma, Pure and Applied Chemistry, Vol. 51, pages 857-866, 1979). The antipapilloma assay is a direct test of the capability of a retinoid to prevent tumor formation in vivo. It has been used to select retinoids for clinical development. The tested retinoids reduced papilloma formation to 27-83% of papilloma formation in untreated control mice. […] The number of papillomas in mice treated with either of these six retinoids was 27-40% of the number of papillomas on untreated mice; or, differently expressed, papilloma formation was reduced by 60-73%.
In this assay, tumors are initiated in mice by applying the carcinogen DMBA to the skin of mice and subsequently applying the promoter TPA. The method is that of Verma et al., Cancer Research, Vol. 39, pages 419-425, 1979.

[3] = system: ornithine decarboxylase; experiment: Ornithine decarboxylase assay (reduction of TPA-induced ODC activity in mouse skin); assay type: in vivo; settings: for Ornithine Decarboxylase Activity, Average % of Control Group: TPA-induced ODC, mouse skin, nanomoles of carbon dioxide per milligram of protein per half hour; for ODC activity as % of the ODC activity in the control mice, summary range: TPA-induced, summary of Table III in text
From the text: A bioassay in vivo for activity in the prevention of carcinogen-induced cancer is based on the reduction by a retinoid of the amount of ornithine decarboxylase (ODC) induced in mouse skin by the tumor promoter 12-O-tetradecanoylphorbol 13-acetate (TPA). Verma et al. (Cancer Research, Vol. 38, pages 793-801, 1978), reported that "application of the potent tumor-promoting agent 12-O-tetradecanoylphorbol 13-acetate (TPA) to mouse skin leads to a rapid and transient induction of epidermal ornithine decarboxylase activity". They state, further, that "inhibition of this enzyme activity by retinoids may be a simple and rapid in vivo test for assessing the potential prophylactic activity of new synthetic retinoids". All of the tested 4-oxoretinoid analogues reduced TPA-induced ODC activity. The compounds of Examples 2-4, 8, 11, 17, 18, and 20-23 reduced ODC activity to 22-47% of the ODC activity in the control mice and are, therefore, very active in this assay for cancer chemopreventive activity.
Ornithine Decarboxylase Assay
Assays for the reduction by 4-oxoretinoids of ornithine decarboxylase activity induced by 12-O-tetradecanoylphorbol 13-acetate (TPA) were performed by the procedure of Verma et al., Cancer Research, Vol. 38, pages 793-801 (1978).

[4] = system: tracheas obtained from vitamin A-deficient hamsters; experiment: Hamster trachea organ culture assay (reversal of squamous metaplasia and keratinization); assay type: cell-based; settings: for pEC50: Mesocricetus auratus, reversal of keratinization, vitamin A-deficient hamster trachea in culture, read-out: ED50, hamster trachea organ culture assay
Description: Some of these 4-oxoretinoic acid analogues were evaluated in the hamster-trachea organ-culture assay described in Clamon et al., Nature, Vol. 250, pages 64-66, 1974; Sporn et al., Nature, Vol. 263, pages 110-113, 1976; and Newton et al., Cancer Res., Vol. 40, pages 3413-3425, 1980. This bioassay is specific for retinoids and assesses the capacity of retinoids to reverse keratinization in vitamin A-deficient hamster trachea in culture. Therefore, it is a measure of the capacity of a retinoid to control differentiation of epithelial cells, and "it is believed to have significant predictive value for the potential use of a new retinoid for prevention of epithelial cancer" (Newton et al., Cancer Res., Vol. 40, pages 3413-3425, 1980). (See Example 25). Also, data obtained by Newton et al., (Cancer Res., Vol. 40, pages 3413-3425, 1980) in assays of six all-trans or 13-cis retinamides are included in Table II for comparison.
Hamster Trachea Organ Culture Assay
4-Oxoretinoids were evaluated for their capacity to reverse squamous metaplasia and keratinization in organ cultures of tracheas obtained from vitamin A-deficient hamsters. The methods and procedures were those described by Sporn and co-workers (Clamon et al. and Newton et al., loc. cit.).

[5] = molar concentration causing 50% induction of differentiation

SMILES | pEC50 [1, 5] | Average Number of Skin Papillomas/Mouse as % of No. of Papillomas/Mouse in the DMBA-TPA Control Group of Mice [2] | Reduction of papilloma formation, summary range [2] | Papilloma formation as % of papilloma formation in untreated control mice, summary range [2] | Ornithine Decarboxylase Activity, Average % of Control Group [3] | ODC activity as % of the ODC activity in the control mice, summary range [3] | pEC50 ([1]; average of two determinations, 50% induction of differentiation) | pEC50 [4] | Activity in hamster-trachea assay compared with the retinamides of Table II ([4]; compared with retinamides in lower part of Table II)
C#CCC1CC(C)(C)C(/C=C/C(C)=C/C=C/C(C)=C/C(=O)OC)=C(C)C1=O (stereo not drawn) [Example 8, Methyl 4-Oxo-3-(2-propynyl)retinoate] | 8.82 | 40% | 60-73% | 27-40% | 35 % of Control Group | 22-47 % of the ODC activity in the control mice | – | – | –
CCC1CC(C)(C)C(/C=C/C(C)=C/C=C/C(C)=C/C(=O)OC)=C(C)C1=O (stereo not drawn) [Example 4, Methyl 3-Ethyl-4-oxoretinoate] | – | 83% | – | – | 31 % of Control Group | – | – | – | –
CCC1CC(C)(C)C(/C=C/C(C)=C/C=C/C(C)=C/C(=O)O)=C(C)C1=O (stereo not drawn) [Example 18, 3-Ethyl-4Oxoretionoic Acid] | 8.30 | 57% | – | – | 40 % of Control Group | 22-47 % of the ODC activity in the control mice | – | – | –
C=CCC1CC(C)(C)C(/C=C/C(C)=C/C=C/C(C)=C/C(=O)O)=C(C)C1=O (stereo not drawn) [Example 19, 4-Oxo-3-(2-propenyl)retinoic Acid] | 9.15 | 47% | – | – | 68 % of Control Group | – | – | – | –
CC1=C(/C=C/C(C)=C/C=C/C(C)=C/C(=O)O)C(C)(C)CC(CC=Cc2ccccc2)C1=O (stereo not drawn) [Example 22, 3-Cinnamyl-4-oxoretinoic Acid] | 8.46 | 39% | 60-73% | 27-40% | 23 % of Control Group | – | – | – | –
CC1=C(/C=C/C(C)=C/C=C/C(C)=C/C(=O)O)C(C)(C)CC(C)(C)C1=O [Example 23, 3.3-Dimethyl-4-Oxoretinoic Acid] | – | 27% | 60-73% | 27-40% | 26 % of Control Group | – | 9.64 | – | –
CC1=C(/C=C/C(C)=C/C=C/C(C)=C/C(=O)O)C(C)(C)CC(C)C1=O (stereo not drawn) [Example 17, 3-Methyl-4-oxoretinoic Acid] | 9.05 | 32% | 60-73% | 27-40% | 33 % of Control Group | 22-47 % of the ODC activity in the control mice | – | 8.70 | –
CC1=C(/C=C/C(C)=C/C=C/C(C)=C/C(=O)O)C(C)(C)CC(Cc2ccccc2)C1=O (stereo not drawn) [Example 21] | 9.10 | – | – | – | 42 % of Control Group | – | – | 7.96 | –
COC(=O)/C=C(C)/C=C/C=C(C)/C=C/C1=C(C)C(=O)C(CC=Cc2ccccc2)CC1(C)C (stereo not drawn) [Example 3, Methyl 3-Cinnamyl-4-oxoretinoate] | – | – | – | – | 31 % of Control Group | – | – | – | –
C#CCC1CC(C)(C)C(/C=C/C(C)=C/C=C/C(C)=C/C(=O)O)=C(C)C1=O (stereo not drawn) [Example 20] | 9.22 | 64% | – | – | 47 % of Control Group | – | – | 9.70 | comparable
C=CCC1CC(C)(C)C(/C=C/C(C)=C/C=C/C(C)=C/C(=O)OC)=C(C)C1=O (stereo not drawn) [Example 7, Methyl 4-Oxo-3-(2-propenyl)retinoate] | – | 42% | – | – | 56 % of Control Group | – | – | – | –
COC(=O)/C=C(C)/C=C/C=C(C)/C=C/C1=C(C)C(=O)C(C)CC1(C)C (stereo not drawn) [Example 2, Methyl 3-Methyl-4-oxoretinoate] | 8.70 | 27% | 60-73% | 27-40% | 33 % of Control Group | – | – | 8.40 | –
COC(=O)/C=C(C)/C=C/C=C(C)/C=C/C1=C(C)C(=O)C(Cc2ccccc2)CC1(C)C (stereo not drawn) [Example 9, Methyl 4-Oxo-3-(phenylmethyl)retinoate] | – | – | – | – | 77 % of Control Group | – | – | 7.96 | –
